Data reported in US8957056B2, “Migrastatin analogs in the treatment of cancer” (Sloan-Kettering Instiute for Cancer Research, priority 2004, dated 2015).
Where two headings read alike, the source gives them in different places.

Experiments:
HUVEC = assay: Tube formation assay; format: cell-based, human; conditions: HUVEC on matrigel, 16-18 h, tested concentrations 200, 100, 50, 25, 10 μM
Description: A protocol was designed based on the instructions from the provider (BD Bioscience, San Jose, Calif.). Briefly, wells of a 48 well culture dish were covert with 150 μL matrigel and the matrigel was gelatinized for 30 min at 37° C. A 80-90% confluent HUVEC (BD Bioscience, San Jose, Calif.) culture was trypsin treated, the detached cells were collected by centrifugation and resuspended in EGM-2 media (BD Bioscience, San Jose, Calif.). Cell concentration was adjusted to 100.000 cells/mL. 400 μL of the cell suspension were filled in the matrigel coated wells, and a solution of the inhibitor was added to the intended final concentration. The plates were incubated at 37° C. with 5% CO2 for 16-18 h. Media was removed, and the matrigel surface was washed twice with 500 μL PBS before cells were labeled with 250 μL 8 μM Calcein AM (Pierce, Rockford, Ill.) in PBS for 30 min at 37° C. After two additional washing steps (500 μL PBS) cells were visualized under an inverted microscope. Fluorescence was excited at 488 nm and recorded at 538 nm. The minimum effect concentration was defined as the minimal inhibitor concentration that caused a definite disturbance of the complexity of the formed tube network.

[1] = test system: adherent cells (e.g. KYSE-520 cells); assay: Wound healing (scratch) assay, preliminary (Table 2); format: cell-based; conditions: 28 to 30 h, tested concentrations 200, 100, 50, 25, 10 μM
Description: The wound healing assay was performed based on the method described by Nakae et al. (Nakae et al., J. Antibiotics (2000), 53, 1130-1136). Briefly, adherent cells were grown in a suitable media to confluence (e.g. KYSE-520 cells in RPMI-1640 with 10% FBS). Cells were starved for 24 h in serum free media A scratch (ca. 0.5 mm) was applied and the cell layer was washed twice with PBS after removal of the media. Fresh, serum free media with the test compound at the desired concentration was added and the cells were incubated for 28 to 30 h at 37° C., 5% CO2. The scratch size was compared to that observed for cells exposed to 100 μM Migrastatin. Test compounds associated with a scratch size equal to or larger than that observed for cells exposed to 100 μM Migrastatin were deemed to have cell migration inhibitory activity at least equal to Migrastatin.

[2] = Chamber cell migration assay, preliminary (Table 3); format: cell-based; conditions: 36 h, tested concentrations 200, 100, 50, 25, 10 μM
Description: Cells were grown in an appropriate media to 70 to 80% confluence and incubated in serum and growth factor free media for 24 h. Cells were detached by trypsin treatment, collected by centrifugation and resuspended in serum free media to a final concentration of 150,000 cells/mL. 400 μL of the cell suspension were loaded into a fibronectin coated insert for 24 well multidishes. 750 μL fully supplemented media were applied to the compartment under the insert. To both chambers the inhibitor was added at the intended concentration and the plates were incubated for 36 h at 37° C., 5% CO2. […] The resulting CyQuant assay solution was transferred to the cavities of a 96 well microtiter plate and the fluorescence signal was recorded in an appropriate reader. The CyQuant dye forms a highly fluorescent complex with DNA, thus the fluorescence signal is proportional to the number of cells that migrated through the membrane in the presence of the test compound (N^inh) A positive control (i.e., without a test compound in the growth media) was carried out according to the procedure described above, except that no test compound was added. The positive control fluorescent reading correlates with the number of cells that migrate through the membrane in the absence of inhibitor (N^+). […] The anti-migratory effect of a test compound is determined by the ratio (N^inh−N^−)/(N^+−N^−).

[3] = test system: mouse breast tumor cells (4T1 cells); assay: Boyden chamber cell migration assay, 4T1; format: cell-based; conditions: Mus musculus, 4T1, read-out: IC50 value, chamber cell migration assay
[4] = Mouse blood plasma stability; conditions: test period one hour
Description: The biological evaluation of the compounds (in terms of their ability to inhibit cell migration) was accomplished in a Boyden chamber cell migration assay. In this assay, mouse breast tumor cells (4T1 cells) or endothelial cells (HUVECs) are seeded on the upper chamber of a transwell insert. Growth factor-containing serum is added to the lower chamber.
In anticipation of subsequent in vivo evaluation of these compounds and others, preliminary metabolic stability studies were carried out. […] As a test of the ‘deactivation hypothesis’, the hydrolysis product of macrolactone 48 was prepared (Scheme 27) and tested for its activity against tumor cell migration.

[5] = test system: six solid human tumor cell lines and four liquid cancer cell lines; assay: Chamber cell migration, various human cancer cells (overall statements); format: cell-based; conditions: migration inhibition
Description: Additional evaluation was conducted in a variety of human cancer cells and xenographs (See FIGS. 4-19). […] Unexpectedly, a very high selectivity between the various tumor cell lines was detected (Table 4 and FIG. 2). […] As stated above, non-transformed human cells such as HUVEC appear to be largely more resistant to the compounds. […] This was an unforeseen discovery, especially in light of the response observed for these compounds to the 4T1 mouse breast cancer cell line (previously reported in WO 2004/087672).
Cell migrations were assayed with 8 μm of microporous 6.5-mm transwell plates (Corning). 200 μl of 2×10^5 cells in serum-free RPMI1640 medium containing 0.5% BSA were added to the upper chamber and 600 μl of medium with 10% fetal bovine serum was added to the lower chamber. […] Cells migrated to the lower wells were collected and counted for liquid tumors, solid tumors were processed as previously described.^28 Data shown are representative of at least three experiments.

mouse 4T1 cell = mouse 4T1 cell proliferation; previously reported (WO 2004/087672); cited from earlier work
[6] = reported by Imoto / Kosan; read-out: IC50 value, reported activity in a wound healing assay; cited from earlier work

`CO[C@H]1/C=C/CC/C=C/C(=O)OC([C@H](C)C(=O)CCCC2CC(=O)NC(=O)C2)/C(C)=C\[C@@H](C)[C@@H]1O` (some centres unmarked) [Migrastatin (1), Migrastatin] gave a Minimum effect concentration (HUVEC) of 100 µM, a Minimum effect concentration [1] of 100 µM and an IC50 [2] of 200 µM. For the same molecule, the IC50 [3] was 29 µM, the “metabolic stability in mouse blood plasma” value [4] was “completely inert toward lactone opening” and the “response of the human tumor cell lines tested” value [5] was “did not respond well to any of the cell lines tested”. The IC50 (mouse 4T1 cell) was 42 µM and the IC50 [6] was 29 µM.
